Reference: US7163689B2, “Intravenous valproate for acute treatment of migraine headache” (priority 1999, dated 2007)
Values joined by “and” are separate entries in the source; they are usually repeats but may differ in a detail not shown here. Equal entries are not always repeated.

Assays:
Format in all cases: in vivo, human
[1] = test system: patients with moderate to severe migraine headaches of duration of 24 to 96 hrs; assay: Pilot study: IV valproate vs IM DHE with metoclopramide for abortive treatment of acute migraine headache (Example 1); conditions: for % Headache Relief: 5 patients per group; for Headache Severity / Nausea/vomiting / Phonophobia / Photophobia: individual patient; for Headache Severity: grade 0-3; for Nausea/vomiting / Phonophobia / Photophobia: presence; for patients who had nausea / patients who had relief of phonophobia / patients who had relief of photophobia / patients with response of headache from moderate or severe to none or mild: of 5 patients
From the text: This Example describes the results of a pilot study using intravenous valproate for abortive treatment of acute migraine headache. • Methods. Patients with established diagnosis of migraine with and without aura were considered for randomization to intravenous (“IV”) valproate (“VPA”) or intramuscular (“IM”) dihydroergotamine (“DHE”) with metoclopramide, also referred to herein as […]®, for patients with moderate to severe migraine headaches of duration of 24 to 96 hrs. Patients received intravenous infusion of 500 mgs of valproate over 30 mins or 1 mg DHE with 10 mgs metoclopramide IM. Headache severity, presence of nausea, phonophobia and photophobia were rated at baseline, 1 hr, 2 hrs, and 4 hrs. Table I and II. There were 5 patients in each group. • Results. Of the 5 patients receiving valproate, 4 of the 5 had response of their headaches from moderate or severe to none or mild at 1 hr, 2 hrs, and 4 hrs. Of the 5 patients receiving DHE, 3 of the 5 patients had headache response to moderate or severe to mild or none at 1 hr, 2 hrs, and 4 hrs. Table III. […] In the DHE group, 2 of 5 had nausea at baseline, and 1 had nausea at 1 hr, 2 hrs, and 4 hrs. Table IVa. […] In the DHE group, 3 of 5 had relief of photophobia at 1 hr, 4 of 5 had relief at 2 hrs and 4 hrs. […] In the DHE group, 2 of 5 had relief of phonophobia at 1 hr, and 3 of 5 had relief of phonophobia at 2 hrs and 4 hrs. Table IVb. • Conclusions. Intravenous valproate is an alternative therapy for abortive treatment of moderate to severe prolonged acute migraine headache. Anti-convulsant mechanisms may be relevant to treatment of headache symptomatology.

[2] = test system: patients with prolonged moderate to severe migraine; assay: Further expanded study (N=40): Depacon vs DHE preceded by metoclopramide, prolonged moderate to severe migraine (Example 3); conditions: for Headache Severity (group value, four grade rating) / Number of Patients Who Reported Nausea / Number of Patients Who Reported Phonophobia / Number of Patients Who Reported Photophobia / Responder Rate / Symptom Free patients (no headache or associated symptomatology), % / Symptom Free patients (no headache or associated symptomatology), number: N = 20 per group
From the text: This Example describes a further expanded study and analysis of the effectiveness of intravenous VPA for the treatment of acute migraine headache of significant duration. Patient data from the study described in Examples 1 and 2 have been incorporated and further analyzed in addition to new patient data. • Design and Methods. Participants (N=40) were from age 14 to 74 and were established patients of the Western New England Headache Clinic. Patients called to report the pressure of prolonged moderate to severe migraine. They had no evidence of conditions other than migraine to cause headache and were medically stable. […] Patients received a neurological and general physical examination and filled out a four grade baseline headache rating from developed by Western New England Headache Clinic (see Table 2). The patients then received either 500 mg Depacon™ over 15–30 minutes administered in 100 ccs D5W, or 1 mg DHE intramuscularly preceded by 10 mg metoclopramide intramuscularly. Headache severity and associated symptomatology were rated 1, 2, and 4 hours. Results. A total of 40 patients were randomized, 20 in the Depacon™ group and 20 in the DHE group. Table VII summarizes the number of patients in each group by severity of headache (moderate or severe), demographic data and medication assignment.

[3] = test system: patients with moderate to severe headaches of 24–72 hours duration; assay: Expanded study: IV VPA vs DHE with metoclopramide IM, acute migraine headache (Example 2); conditions: 24-h
[4] = test system: patients with moderate to severe migraine headaches of duration of 24 to 96 hrs; assay: Pilot study: IV valproate vs IM DHE with metoclopramide for abortive treatment of acute migraine headache (Example 1); conditions: individual patient, grade 0-3; 24-h

CN1C[C@H](C(=O)N[C@]2(C)O[C@@]3(O)[C@@H]4CCCN4C(=O)[C@H](Cc4ccccc4)N3C2=O)C[C@@H]2c3cccc4[nH]cc(c34)C[C@H]21 [DHE, dihydroergotamine]
% experiencing Nausea ([1]; 0-h (baseline)): 40%
% experiencing Photophobia ([1]; 0-h (baseline)): 100%
% experiencing phonphobia ([1]; 0-h (baseline)): 80%
% experiencing Nausea ([1]; 1-h): 20%
% experiencing Photophobia ([1]; 1-h): 60%
% experiencing phonphobia ([1]; 1-h): 40%
% experiencing Nausea ([1]; 2-h): 50%
% experiencing Photophobia ([1]; 2-h): 50%
% experiencing phonphobia ([1]; 2-h): 50%
% experiencing Nausea ([1]; 4-h): 40%
% experiencing Photophobia ([1]; 4-h): 40%
% experiencing phonphobia ([1]; 4-h): 40%
% Headache Relief ([1]; 1-h): 60%
% Headache Relief ([1]; 2-h): 50%
% Headache Relief ([1]; 4-h): 60%
Headache Severity ([1]; 0-h (baseline), Depacon IV 500 mg or DHE 1 mg + Reglan 10 mg): 2 and 3 (4×)
Headache Severity ([1]; 1-h): 3 and 0 (2×) and 1 and 2
Headache Severity ([1]; 2-h): 3 and 0 (2×) and 2
Headache Severity ([1]; 4-h): 3 and 1 and 0 (2×) and 2
Nausea/vomiting ([1]; 0-h (baseline)): 0
Phonophobia ([1]; 0-h (baseline)): 0
Nausea/vomiting ([1]; 1-h): 0
Phonophobia ([1]; 1-h): 0
Photophobia ([1]; 1-h): 0
Nausea/vomiting ([1]; 2-h): 0
Phonophobia ([1]; 2-h): 0
Photophobia ([1]; 2-h): 0
Nausea/vomiting ([1]; 4-h): 0
Phonophobia ([1]; 4-h): 0
Photophobia ([1]; 4-h): 0
Nausea/vomiting ([1]; 24-h): 0
Phonophobia ([1]; 24-h): 0
Photophobia ([1]; 24-h): 0
patients who had nausea ([1]; 1 hr): 1
patients who had relief of phonophobia ([1]; 1 hr): 2 of 5
patients who had relief of photophobia ([1]; 1 hr): 3 of 5
patients with response of headache from moderate or severe to none or mild ([1]; 1 hr): 3 of the 5
patients who had nausea ([1]; 2 hrs): 1
patients who had relief of phonophobia ([1]; 2 hrs): 3 of 5
patients who had relief of photophobia ([1]; 2 hrs): 4 of 5
patients with response of headache from moderate or severe to none or mild ([1]; 2 hrs): 3 of the 5
patients who had nausea ([1]; 4 hrs): 1
patients who had relief of phonophobia ([1]; 4 hrs): 3 of 5
patients who had relief of photophobia ([1]; 4 hrs): 4 of 5
patients with response of headache from moderate or severe to none or mild ([1]; 4 hrs): 3 of the 5
patients who had nausea ([1]; baseline): 2 of 5
% of Patients Who Reported Nausea ([2]; 1 hour): 42%
% of Patients Who Reported Phonophobia ([2]; 1 hour): 67%
% of Patients Who Reported Photophobia ([2]; 1 hour): 75%
% of Patients Who Reported Nausea ([2]; 2 hours): 50%
% of Patients Who Reported Phonophobia ([2]; 2 hours): 67%
% of Patients Who Reported Photophobia ([2]; 2 hours): 65%
% of Patients Who Reported Nausea ([2]; 4 hours): 50%
% of Patients Who Reported Phonophobia ([2]; 4 hours): 61%
% of Patients Who Reported Photophobia ([2]; 4 hours): 55%
% of Patients Who Reported Nausea ([2]; Baseline): (60%)
% of Patients Who Reported Phonophobia ([2]; Baseline): 90%
% of Patients Who Reported Photophobia ([2]; Baseline): 100%
Headache Severity (group value, four grade rating) ([2]; 1 hour): 1.5
Number of Patients Who Reported Nausea ([2]; 1 hour): 5
Number of Patients Who Reported Phonophobia ([2]; 1 hour): 12
Number of Patients Who Reported Photophobia ([2]; 1 hour): 15
Responder Rate ([2]; 1 hour): 45%
Headache Severity (group value, four grade rating) ([2]; 2 hours): 1.4
Number of Patients Who Reported Nausea ([2]; 2 hours): 6
Number of Patients Who Reported Phonophobia ([2]; 2 hours): 12
Number of Patients Who Reported Photophobia ([2]; 2 hours): 13
Responder Rate ([2]; 2 hours): 50%
Headache Severity (group value, four grade rating) ([2]; 4 hours): 1.2
Number of Patients Who Reported Nausea ([2]; 4 hours): 6
Number of Patients Who Reported Phonophobia ([2]; 4 hours): 11
Number of Patients Who Reported Photophobia ([2]; 4 hours): 11
Responder Rate ([2]; 4 hours): 60%
Headache Severity (group value, four grade rating) ([2]; Baseline): 2.6
Number of Patients Who Reported Nausea ([2]; Baseline): DHE 12
Number of Patients Who Reported Phonophobia ([2]; Baseline): 18
Number of Patients Who Reported Photophobia ([2]; Baseline): 20
Symptom Free patients (no headache or associated symptomatology), % ([2]; at 1 hour): 15%
Symptom Free patients (no headache or associated symptomatology), number ([2]; at 1 hour): 3
Symptom Free patients (no headache or associated symptomatology), % ([2]; at 2 hours): 25%
Symptom Free patients (no headache or associated symptomatology), number ([2]; at 2 hours): 5
Symptom Free patients (no headache or associated symptomatology), % ([2]; at 4 hours): 30%
Symptom Free patients (no headache or associated symptomatology), number ([2]; at 4 hours): 6
% experiencing Photophobia [3]: 20%
Photophobia ([3]; individual patient, presence): 0
Headache Severity [4]: 1 (2×) and 0 and 2
